Assay results taken from ChEMBL document CHEMBL1201862, “PubChem BioAssay data set” (2004).
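Each compound was tested at five concentrations against cells in 96-well plates for 48 hours. GI50 is the concentration that inhibits growth by half.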 The source made the active and inactive calls. No stated cut-off is given here; in the data, active = GI50 up to about 1.1 µM and inactive = higher.

Legend:
Experiment in all cases: NCI tumour cell line growth inhibition, 48 h
SF-268 = tested on: SF-268
T47D = tested on: T47D
SF-539 = tested on: SF-539
OVCAR-5 = tested on: OVCAR-5
SNB-19 = tested on: SNB-19
COLO 205 = tested on: COLO 205
OVCAR-3 = tested on: OVCAR-3
DU-145 = tested on: DU-145
U-251 = tested on: U-251
ACHN = tested on: ACHN
TK-10 = tested on: TK-10
SK-OV-3 = tested on: SK-OV-3
NCI-H522 = tested on: NCI-H522
PC-3 = tested on: PC-3
RXF 393 = tested on: RXF 393
EKVX = tested on: EKVX
HL-60 = tested on: HL-60
SK-MEL-2 = tested on: SK-MEL-2
HCT-15 = tested on: HCT-15
OVCAR-8 = tested on: OVCAR-8
HOP-62 = tested on: HOP-62
UACC-62 = tested on: UACC-62
RPMI-8226 = tested on: RPMI-8226
SK-MEL-5 = tested on: SK-MEL-5
Malme-3M = tested on: Malme-3M
Hs-578T = tested on: Hs-578T
786-0 = tested on: 786-0
SNB-75 = tested on: SNB-75
SF-295 = tested on: SF-295
NCI/ADR-RES = tested on: NCI/ADR-RES
K562 = tested on: K562
UACC-257 = tested on: UACC-257
MDA-MB-435 = tested on: MDA-MB-435
CCRF-CEM = tested on: CCRF-CEM
M14 = tested on: M14
CAKI-1 = tested on: CAKI-1
A549 = tested on: A549
LOX IMVI = tested on: LOX IMVI
MDA-N = tested on: MDA-N
NCI-H23 = tested on: NCI-H23
HOP-92 = tested on: HOP-92
IGROV-1 = tested on: IGROV-1
UO-31 = tested on: UO-31
MOLT-4 = tested on: MOLT-4
SR = tested on: SR
OVCAR-4 = tested on: OVCAR-4
MCF7 = tested on: MCF7
KM12 = tested on: KM12
BT-549 = tested on: BT-549
NCI-H226 = tested on: NCI-H226
SW-620 = tested on: SW-620
NCI-H460 = tested on: NCI-H460
HT-29 = tested on: HT-29
A498 = tested on: A498
HCT-116 = tested on: HCT-116
HCC 2998 = tested on: HCC 2998
SK-MEL-28 = tested on: SK-MEL-28
SN12C = tested on: SN12C
MDA-MB-231 = tested on: MDA-MB-231

COC(=O)/C=C\C(C#N)(C#N)/N=C/c1ccc(OC)cc1
GI50 (SF-268): 4.94 µM (inactive) | GI50 (T47D): 1.54 µM (inactive) | GI50 (SF-539): 4.99 µM (inactive) | GI50 (OVCAR-5): 21.7 µM (inactive) | GI50 (SNB-19): > 44.7 µM (inactive) | GI50 (COLO 205): 1.65 µM (inactive) | GI50 (OVCAR-3): 2.72 µM (inactive) | GI50 (DU-145): 7.01 µM (inactive) | GI50 (U-251): 17.9 µM (inactive) | GI50 (ACHN): 2.82 µM (inactive) | GI50 (TK-10): 2.63 µM (inactive) | GI50 (SK-OV-3): 17.3 µM (inactive) | GI50 (NCI-H522): 0.615 µM (active) | GI50 (PC-3): 7.4 µM (inactive) | GI50 (RXF 393): 2.19 µM (inactive) | GI50 (EKVX): 16.6 µM (inactive) | GI50 (HL-60): 1.45 µM (inactive) | GI50 (SK-MEL-2): 18.3 µM (inactive) | GI50 (HCT-15): 3.85 µM | GI50 (OVCAR-8): 2.89 µM (inactive) | GI50 (HOP-62): 17.7 µM (inactive) | GI50 (UACC-62): 15.9 µM (inactive) | GI50 (RPMI-8226): 0.48 µM (active) | GI50 (SK-MEL-5): 17.8 µM (inactive) | GI50 (Malme-3M): 1.73 µM (inactive) | GI50 (Hs-578T): 10 µM (inactive) | GI50 (786-0): 1.99 µM (inactive) | GI50 (SNB-75): 16.4 µM (inactive) | GI50 (SF-295): 25.1 µM (inactive) | GI50 (NCI/ADR-RES): 2.73 µM (inactive) | GI50 (K562): 3.41 µM (inactive) | GI50 (UACC-257): 4.83 µM (inactive) | GI50 (MDA-MB-435): 2.33 µM (inactive) | GI50 (CCRF-CEM): 0.162 µM (active) | GI50 (M14): 3.08 µM (inactive) | GI50 (CAKI-1): 2.08 µM (inactive) | GI50 (A549): 19.5 µM (inactive) | GI50 (LOX IMVI): 3.12 µM (inactive) | GI50 (MDA-N): 4.75 µM (inactive) | GI50 (NCI-H23): 8.95 µM (inactive) | GI50 (HOP-92): 1.92 µM (inactive) | GI50 (IGROV-1): 15 µM (inactive) | GI50 (UO-31): 2.25 µM (inactive) | GI50 (MOLT-4): 1.06 µM (active) | GI50 (SR): 0.681 µM (active) | GI50 (OVCAR-4): 1.92 µM (inactive) | GI50 (MCF7): 2.73 µM (inactive) | GI50 (KM12): 16.7 µM (inactive) | GI50 (BT-549): 5.04 µM (inactive) | GI50 (NCI-H226): 10.8 µM (inactive) | GI50 (SW-620): 1.99 µM (inactive) | GI50 (NCI-H460): 19.5 µM (inactive) | GI50 (HT-29): 5.31 µM (inactive) | GI50 (A498): 18.5 µM (inactive) | GI50 (HCT-116): 1.84 µM (inactive) | GI50 (HCC 2998): 20.6 µM (inactive) | GI50 (SK-MEL-28): 2.7 µM (inactive) | GI50 (SN12C): 15.3 µM (inactive) | GI50 (MDA-MB-231): 18 µM (inactive)

O=C(CNc1ccc([N+](=O)[O-])cc1)Nn1c(-c2ccccc2)nc2ccccc2c1=O
GI50 (SF-268): 4.23 µM (inactive) | GI50 (T47D): 3.11 µM (inactive) | GI50 (SF-539): 2.85 µM (inactive) | GI50 (OVCAR-5): 5.73 µM (inactive) | GI50 (SNB-19): 8.75 µM (inactive) | GI50 (COLO 205): 2.28 µM (inactive) | GI50 (OVCAR-3): 6.93 µM (inactive) | GI50 (DU-145): 8.91 µM (inactive) | GI50 (U-251): 1.95 µM (inactive) | GI50 (ACHN): 3.95 µM (inactive) | GI50 (TK-10): 6.15 µM (inactive) | GI50 (SK-OV-3): 3.97 µM (inactive) | GI50 (NCI-H522): 1.72 µM (inactive) | GI50 (PC-3): 3.07 µM (inactive) | GI50 (RXF 393): 2.82 µM (inactive) | GI50 (EKVX): 13.4 µM (inactive) | GI50 (HL-60): 2.26 µM (inactive) | GI50 (SK-MEL-2): 2.15 µM (inactive) | GI50 (HCT-15): 2.93 µM | GI50 (OVCAR-8): 4.24 µM (inactive) | GI50 (HOP-62): 11.2 µM (inactive) | GI50 (UACC-62): 1.32 µM (inactive) | GI50 (RPMI-8226): 2.47 µM (inactive) | GI50 (SK-MEL-5): 1.04 µM (active) | GI50 (Malme-3M): 2.03 µM (inactive) | GI50 (Hs-578T): 2.73 µM (inactive) | GI50 (786-0): 2.4 µM (inactive) | GI50 (SNB-75): 3.73 µM (inactive) | GI50 (SF-295): 14.5 µM (inactive) | GI50 (NCI/ADR-RES): 2.33 µM (inactive) | GI50 (K562): 1.91 µM (inactive) | GI50 (UACC-257): 7.78 µM (inactive) | GI50 (MDA-MB-435): 3.96 µM (inactive) | GI50 (CCRF-CEM): 0.811 µM (active) | GI50 (M14): 3.03 µM (inactive) | GI50 (CAKI-1): 2.24 µM (inactive) | GI50 (A549): 8.77 µM (inactive) | GI50 (LOX IMVI): 0.841 µM (active) | GI50 (MDA-N): 3.49 µM (inactive) | GI50 (NCI-H23): 2.43 µM (inactive) | GI50 (HOP-92): 0.377 µM (active) | GI50 (IGROV-1): 3.64 µM (inactive) | GI50 (UO-31): 4.32 µM (inactive) | GI50 (MOLT-4): 1.89 µM (inactive) | GI50 (SR): 3.1 µM (inactive) | GI50 (OVCAR-4): 2.79 µM (inactive) | GI50 (MCF7): 2.52 µM (inactive) | GI50 (KM12): 4.56 µM (inactive) | GI50 (BT-549): 1.82 µM (inactive) | GI50 (NCI-H226): 4.69 µM (inactive) | GI50 (SW-620): 2.39 µM (inactive) | GI50 (NCI-H460): 3.81 µM (inactive) | GI50 (HT-29): 3.06 µM (inactive) | GI50 (A498): 7.01 µM (inactive) | GI50 (HCT-116): 3.03 µM (inactive) | GI50 (HCC 2998): 9.02 µM (inactive) | GI50 (SK-MEL-28): 3.25 µM (inactive) | GI50 (SN12C): 2.2 µM (inactive) | GI50 (MDA-MB-231): 3.52 µM (inactive)
